# Measured values as given in patent publication US20120035214A1, “RENIN INHIBITORS” (Merck Canada Inc., priority 2009, published 2012).
# How the values were obtained:
# [1] = biological target: T1, Human recombinant renin (Homo sapiens, UniProt P00797); assay: Inhibition of human recombinant renin (QFRET, buffer); format: biochemical; settings: buffer: 50 mM MOPS pH 7.4, 100 mM NaCl, 0.002% Tween 20; 37° C., 3 hours
# T1 construct: purchased Proteos
# T1 sequence (P00797 67-406): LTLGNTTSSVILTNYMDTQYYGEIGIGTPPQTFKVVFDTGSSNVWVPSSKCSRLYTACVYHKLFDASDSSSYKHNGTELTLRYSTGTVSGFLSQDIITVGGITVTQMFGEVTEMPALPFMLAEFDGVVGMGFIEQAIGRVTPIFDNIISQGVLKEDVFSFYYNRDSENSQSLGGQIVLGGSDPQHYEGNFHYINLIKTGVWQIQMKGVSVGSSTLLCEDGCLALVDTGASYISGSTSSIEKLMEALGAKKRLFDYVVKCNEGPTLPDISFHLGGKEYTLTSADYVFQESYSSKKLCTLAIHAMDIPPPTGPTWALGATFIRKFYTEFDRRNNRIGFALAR
# Method: Inhibition of Human Recombinant Renin
# Human recombinant renin (Proteos) in 50 mM MOPS pH 7.4, 100 mM NaCl, 0.002% Tween 20 at a final concentration of […] is incubated with inhibitors from a 50 fold concentrated DMSO solution and 6 μM of an internally-quenched fluorescent peptide: DNP-[…]D,L-Amp (SEQ ID NO: 1); Paschalidou K. et al., Biochem J., 2004, 382, 1031). The reactions take place in a Costar 384 well black plate (#3573) at 37° C. for 3 hours. Fluorescence is measured at times 0 and 3 hours with a SpectraMax Gemini EM reader set at an excitation wavelength of 328 nm and at an emission wavelength of 388 nm. Background fluorescence at t=0 is subtracted from the measurement at t=3 hours. Inhibitory activity of the compounds is expressed as IC50.
# [2] = biological target: T2, recombinant renin in human plasma (Homo sapiens, UniProt P00797); assay: Inhibition of renin in human plasma (QFRET, plasma); format: biochemical; settings: human EDTA plasma with 1 nM recombinant renin added; 37° C., 1 hour
# T2 construct: purchased Proteos
# T2 sequence (P00797 67-406): T1 sequence (P00797 67-406)
# Method: Inhibition of Renin in Human Plasma
# Human EDTA-collected plasma is rapidly thawed in warm water and centrifuged at 2900 g for 15 minutes at 4° C. The supernatant is collected and recombinant renin (Proteos) is added at a final concentration of 1 nM. The plasma is transferred to a Costar black 384 well plate (#3573). Renin inhibitors are added from a 17.5 fold concentrated DMSO solution and pre-incubated at 37° C. for 10 minutes. The internally-quench fluorescent peptide QXL520™-[…](5-FAM) (Anaspec), SEQ ID NO: 2, is diluted in 3M Tris pH 7.2, 200 mM EDTA and added to the plasma. The final concentrations are: 6 μM substrate, 342 mM Tris, 23 mM EDTA. The plate is incubated at 37° C. for 1 hour. The plate is read in a SpectraMax Gemini EM reader set at an excitation wavelength of 490 nm and an emission wavelength of 520 nm at times 0 and 1 hour. Background fluorescence at t=0 is subtracted from the measurement at t=1 hour. Inhibitory activity of the compounds is expressed as IC50.
IC50 [1],IC50 [2],SMILES
16 nM,2020 nM,COCCCc1ccccc1-c1ccc([C@H]2CNCC[C@]2(OCC(O)CO)c2ccc(F)c(F)c2)c(C)c1 (mixture of isomers) [Structure 48]
1210 nM,> 9500 nM,O[C@]1(c2ccc(F)c(F)c2)CCNC[C@@H]1c1cc(-c2c(Cl)cccc2Cl)no1 [Structure 68]
150 nM,> 28000 nM,Cc1cc(-c2ccccc2OCc2cccnc2)ccc1[C@H]1CNCC[C@@H]1c1cc(F)cc(F)c1 (racemic) [Structure 38]
0.15 nM,0.65 nM,Fc1ccc([C@H]2CCNC[C@@H]2c2nnc(-c3cccc(Cl)c3Cl)n2C2CC2)cc1F [Structure 95]
93 nM,> 28000 nM,Cc1cc(-c2cccc3ccc(O)cc23)ccc1[C@H]1CNCC[C@@H]1c1cc(F)cc(F)c1 (racemic) [Structure 29]
1.2 nM,18 nM,COC[C@H](C)COc1ccc([C@@]2(O)CCNC[C@@H]2c2ccc(-c3ccccc3CCNC(C)=O)cc2C)cc1 [Structure 131]
380 nM,1800 nM,COCCCc1cc(OCCOC)ccc1-c1ccc([C@H]2CNCC[C@@H]2c2cccnc2)c(C)c1 (racemic) [Structure 6]
4.2 nM,750 nM,COCCCc1ccccc1-c1ccc([C@H]2CNCC[C@]2(O)c2cc(F)cc(F)c2)c(C)c1 (racemic) [Structure 39]
0.26 nM,3.8 nM,CC(=O)NCCc1ccccc1-c1ccc([C@H]2CNCC[C@]2(O)c2ccc(COCCOC(C)C)cc2)c(C)c1 (racemic) [Structure 56]
100 nM,11300 nM,COCc1ccc2cccc(-c3ccc([C@H]4CNCC[C@@H]4c4cc(F)cc(F)c4)c(C)c3)c2c1 (racemic) [Structure 30]
4.2 nM,4.9 nM,COC(=O)NCCc1ccccc1-c1ccc([C@H]2CNCC[C@@H]2c2ccn(C)c(=O)c2)c(Cl)c1 (racemic) [Structure 62]
2.1 nM,120 nM,Cc1cc(-c2ccccc2CCNC(=O)CC(F)(F)F)ccc1[C@H]1CNCC[C@@H]1c1cc(F)cc(F)c1 (racemic) [Structure 33]
16 nM,24 nM,CCOC(=O)NCCc1ccccc1-c1ccc([C@H]2CNCC[C@@H]2c2ccn(C)c(=O)c2)c(Cl)c1 (racemic) [Structure 63]
6.5 nM,6 nM,CC(=O)NCCc1ccc(F)cc1-c1ccc([C@H]2CNCC[C@@H]2c2ccn(C)c(=O)c2)c(Cl)c1 (racemic) [Structure 65]
0.65 nM,1.3 nM,CCC(=O)NCCc1ccccc1-c1ccc([C@H]2CNCC[C@@H]2c2cc(F)cc(F)c2)c(C)c1 (racemic) [Structure 18]
0.27 nM,1.1 nM,COCCCc1ccc(-c2onc([C@H]3CNCC[C@]3(O)c3ccc(F)c(F)c3)c2Br)c(CCNC(C)=O)c1 [Structure 102]
4.3 nM,4.5 nM,CC(=O)NCCc1ccccc1-c1onc([C@H]2CNCC[C@]2(O)c2ccc(F)c(F)c2)c1C(C)O (stereo partly shown) [Structure 85]
0.07 nM,1.2 nM,CC(=O)NCCc1ccccc1-c1onc([C@H]2CNCC[C@@H]2c2ccc(OCCOc3c(Cl)cc(C)cc3Cl)cc2)c1C(C)O (stereo partly shown) [Structure 109]
1330 nM,> 28000 nM,O[C@]1(c2ccc(F)c(F)c2)CCNC[C@@H]1c1cc(-c2c(Cl)cccc2Cl)on1 [Structure 79]
0.03 nM,1.3 nM,COC[C@H](C)COCc1ccc([C@@]2(O)CCNC[C@@H]2c2ccc(-c3ccccc3CCNC(=O)OC)cc2C)cc1 [Structure 127]
10 nM,89 nM,CC(=O)NCCc1cccnc1-c1onc([C@H]2CNCC[C@]2(O)c2ccc(F)c(F)c2)c1Br [Structure 97]
4.9 nM,430 nM,Cc1ccc(Cl)c(-c2noc([C@H]3CNCC[C@]3(O)c3ccc(F)c(F)c3)c2Br)c1F [Structure 74]
1410 nM,7280 nM,CC(=O)NCCc1ccccc1-c1ccc([C@@H]2CNCC[C@H]2c2cccnc2)c(C)c1 [Structure 5]
